Results as given in patent publication US20250034098A1, “CRYSTALLINE SUBSTITUTED PYRAZINES AS PGI2 RECEPTOR AGONISTS” (NIPPON SHINYAKU CO., LTD., priority 2017, published 2025).

How the values were obtained:
PGI2 receptor = PGI2 receptor (Homo sapiens, UniProt P43119); details: cited from earlier work
[1] = Stability test of crystal forms of Compound B (Test Example 1); format: physicochemical; details: for thermodynamic stability of the crystal form: Test Example 1, storage at 90° C.; for crystal form transformation on storage: storage at 90° C.; for Crystal form after 14 days: stored at 90° C.
Description: Different crystal forms of Compound B were placed in glass bottles, respectively, and the glass bottles were hermetically sealed and stored at 90° C. Samples were taken out after 1 day, 5 days, and 14 days, and dissolved in methanol at a concentration of 1 mg/mL to determine related substances by HPLC. With respect to the crystals after 14 days, the crystal form was checked.

[2] = Solvent suspending test of form-I crystal in different solvents (Test Example 2); format: physicochemical; details: for Crystal form after 30 minutes at room temperature: stirring
Description: The form-I crystal of the present invention was mixed with different solvents, and stirring was performed at room temperature for 30 minutes. The formed crystals were obtained by filtration, and the crystal forms were determined.

[3] = 90° C., after 1 day, hermetically sealed glass bottle
[4] = 90° C., after 5 days, hermetically sealed glass bottle
[5] = 90° C., after 14 days, hermetically sealed glass bottle
[6] = hermetically sealed glass bottle

Sequence of PGI2 receptor (P43119 whole entry, species assumed): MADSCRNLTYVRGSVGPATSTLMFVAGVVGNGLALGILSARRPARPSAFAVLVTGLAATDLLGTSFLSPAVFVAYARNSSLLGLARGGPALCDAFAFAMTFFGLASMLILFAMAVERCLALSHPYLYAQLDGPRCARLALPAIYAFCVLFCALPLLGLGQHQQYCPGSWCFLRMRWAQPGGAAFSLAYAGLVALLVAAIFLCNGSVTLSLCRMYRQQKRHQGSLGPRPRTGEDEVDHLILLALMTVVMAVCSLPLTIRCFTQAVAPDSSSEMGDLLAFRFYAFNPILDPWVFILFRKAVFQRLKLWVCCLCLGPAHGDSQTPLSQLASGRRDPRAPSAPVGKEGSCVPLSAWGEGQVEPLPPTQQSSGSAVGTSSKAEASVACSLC

For `CC(C)N(CCCCOCC(=O)O)c1cnc(-c2ccccc2)c(-c2ccccc2)n1` [Compound B, 2-{4-[N-(5,6-diphenylpyrazin-2-yl)-N-isopropylamino]butyloxy}acetic acid], the “PGI2 receptor agonistic effect” value (PGI2 receptor) is given as “excellent”.

In the case of `CC(C)N(CCCCOCC(=O)O)c1cnc(-c2ccccc2)c(-c2ccccc2)n1` [Form-III, 2-{4-[N-(5,6-diphenylpyrazin-2-yl)-N-isopropylamino]butyloxy}acetic acid], the Appearance [1, 3] is reported as “No change”, the “HPLC area (%)” value [1, 3] is reported as 99.9% and the Appearance [1, 4] is reported as “No change”. The “HPLC area (%)” value [1, 4] was 99.9%, the Appearance [1, 5] was “No change” and the “HPLC area (%)” value [1, 5] was 99.7%. The Appearance ([1]; Before storage) was “Yellow crystal”, the “HPLC area (%)” value ([1]; Before storage) was 99.9% and the “thermodynamic stability of the crystal form” value ([1]; listed as form-III crystal) was “thermodynamically unstable”. For the same compound, the “crystal form transformation on storage” value [1] was “gradually transformed into the form-II” and the “Crystal form after 14 days” value [1, 6] was “Form-II”.

With `CC(C)N(CCCCOCC(=O)O)c1cnc(-c2ccccc2)c(-c2ccccc2)n1` [Form-II, 2-{4-[N-(5,6-diphenylpyrazin-2-yl)-N-isopropylamino]butyloxy}acetic acid] the Appearance [1, 3] was “No change”, the “HPLC area (%)” value [1, 3] was 100% and the Appearance [1, 4] was “No change”. For the same compound, the “HPLC area (%)” value [1, 4] was 100%, the Appearance [1, 5] was “No change” and the “HPLC area (%)” value [1, 5] was 99.9%. The Appearance ([1]; Before storage) was “Yellow crystal”, the “HPLC area (%)” value ([1]; Before storage) was 100% and the “thermodynamic stability of the crystal form” value [1] was “thermodynamically stable”. The “thermodynamic stability of the crystal form” value ([1]; listed as form-II crystal) was “thermodynamically more stable”, the “Crystal form after 14 days” value [1, 6] was “Form-II” and the “thermodynamic stability of the crystal form when suspended” value ([2]; various solvents at room temperature) was “thermodynamically stable”.

With `CC(C)N(CCCCOCC(=O)O)c1cnc(-c2ccccc2)c(-c2ccccc2)n1` [Form-I, 2-{4-[N-(5,6-diphenylpyrazin-2-yl)-N-isopropylamino]butyloxy}acetic acid] the Appearance [1, 3] was “No change”, the “HPLC area (%)” value [1, 3] was 99.8% and the Appearance [1, 4] was “No change”. The “HPLC area (%)” value [1, 4] was 99.8%, the Appearance [1, 5] was “No change” and the “HPLC area (%)” value [1, 5] was 99.6%. For the same compound, the Appearance ([1]; Before storage) was “White crystal”, the “HPLC area (%)” value ([1]; Before storage) was 99.8% and the “thermodynamic stability of the crystal form” value ([1]; listed as form-I crystal) was “thermodynamically more stable”. The “crystal form transformation on storage” value [1] was “gradually transformed into the form-II”, the “Crystal form after 14 days” value [1, 6] was “Form-I + Form-II” and the “crystal form transformation when suspended” value ([2]; all the solvents, room temperature) was “partially transformed into the form-II crystal of the present invention”. For the same compound, the “Crystal form after 30 minutes at room temperature” value (from here on “Crystal form after 30 minutes”) ([2]; solvent 2-propanol) was “Form-I + Form-II (1:10)”, the “Crystal form after 30 minutes” value ([2]; solvent cyclohexane) was “Form-I + Form-II (1:1)” and the “Crystal form after 30 minutes” value ([2]; solvent toluene) was “Form-I + Form-II (10:1)”. For the same compound, the “Crystal form after 30 minutes” value ([2]; solvent water) was “Form-I + Form-II (10:1)”.
